Patent EP2545050B1, “COMPOUNDS FOR THE TREATMENT OF HEPATITIS C” (Bristol-Myers Squibb Company, priority 2010, dated 2011)

Tested on: HCV replicon
Assay: HCV replicon assay (FRET or luciferase reporter)
Assay type: cell-based
Details: Hepatitis C virus; HCV replicon cells; Table 1
Excerpt: FRET Assay Preparation. To perform the HCV FRET screening assay, 96-well cell culture plates were used. The FRET peptide (Anaspec, Inc.) (Taliani et al., Anal. Biochem. 1996, 240, 60-67) contains a fluorescence donor, EDANS, near one end of the peptide and an acceptor, DABCYL, near the other end. The fluorescence of the peptide is quenched by […] resonance energy transfer (RET) between the donor and the acceptor, but as the NS3 protease cleaves the peptide the products are released from RET quenching and the fluorescence of the donor becomes apparent. The assay reagent was made as follows: 5X cell Luciferase cell culture lysis reagent from Promega (#E153A) diluted to 1X with dH2O, NaCl added to 150 mM final, the FRET peptide diluted to 20 µM final from a 2 mM stock.
To prepare plates, HCV replicon cells, with or without a Renilla luciferase reporter gene, were trypsinized and placed into each well of a 96-well plate with titrated test compounds added in columns 3 through 12; columns 1 and 2 contained a control compound (HCV protease inhibitor), and the bottom row contained cells without compound. The plates were then placed in a CO2 incubator at 37 °C.
Assays. Subsequent to addition of the test compounds described above (FRET Assay Preparation), at various times the plate was removed and Alamar blue solution (Trek Diagnostics, #00-100) was added per well as a measure of cellular toxicity. After reading in a Cytoflour 4000 instrument (PE Biosystems), plates were rinsed with PBS and then used for FRET assay by the addition of 30 ul of the FRET peptide assay reagent described above (FRET Assay Preparation) per well. The plate was then placed into the Cytoflour 4000 instrument which had been set to 340 excite/490 emission, automatic mode for 20 cycles and the plate read in a kinetic mode. Typically, the signal to noise using an endpoint analysis after the reads was at least three-fold. Alternatively, after Alamar blue reading, plates were rinsed with PBS, 50 ul of DMEM (high glucose) without phenol red was added and plates were then used for luciferase assay using the Promega Dual-Glo Luciferase Assay System.
Compound analysis was determined by quantification of the relative HCV replicon inhibition and the relative cytotoxicity values. To calculate cytoxicity values, the average Alamar Blue fluorescence signals from the control wells were set as 100% non-toxic. The individual signals in each of the compound test wells were then divided by the average control signal and multiplied by 100% to determine […]. To calculate the HCV replicon inhibition values, an average background value was obtained from the two wells containing the highest amount of HCV protease inhibitor at the end of the assay period. These numbers were similar to those obtained from naive Huh-7 cells.
The background numbers were then subtracted from the average signal obtained from the control wells and this number was used as 100% activity. The individual signals in each of the compound test wells were then divided by the averaged control values after background subtraction and multiplied by 100% to determine percent activity. EC50 values for a protease inhibitor titration were calculated as the concentration which caused a 50% reduction in FRET or luciferase activity. The two numbers generated for the compound plate, percent cytoxicity and percent activity were used to determine compounds of interest for further analysis.
HCV Replicon Luciferase Reporter Assay
The HCV replicon luciferase assay was developed to monitor the inhibitory effects of compounds described in the disclosure on HCV viral replication. Utilization of a replicon luciferase reporter assay was first described by Krieger et al (Krieger N, Lohmann V, and Bartenschlager R, J. Virol. 75(10):4614-4624 (2001)). […]

First: CNC(=O)c1c(-c2ccc(F)cc2)nn2ccc(-c3cc(C(=O)NC4(c5cnccn5)CC4)c(OC)cc3C)c(F)c12 [4-fluoro-2-(4-fluorophenyl)-5-(4-methoxy-2-methyl-5-(1-(pyrazin-2-yl)cyclopropylcarbamoyl)phenyl)-N-methylpyrazolo[1,5-a]pyridine-3-carboxamide]
Second: CNC(=O)c1c(-c2ccc(F)cc2)nn2ccc(-c3cc(C(=O)NC4(c5ccnnc5)CC4)c(OC)cc3C)c(F)c12 [4-fluoro-2-(4-fluorophenyl)-5-(4-methoxy-2-methyl-5-(1-(pyridazin-4-yl)cyclopropylcarbamoyl)phenyl)-N-methylpyrazolo[1,5-a]pyridine-3-carboxamide]
The EC50 of the first is lower: 2 to 250 nM for the first, 1000 to 10000 nM for the second. The first is the more potent here.

`CNC(=O)c1c(-c2ccc(F)cc2)nn2ccc(-c3cc(C(=O)NC4(c5cc(F)ccn5)CC4)c(OC)nc3C)c(F)c12` [4-fluoro-2-(4-fluorophenyl)-5-(5-(1-(4-fluoropyridin-2-yl)cyclopropylcarbamoyl)-6-methoxy-2-methylpyridin-3-yl)-N-methylpyrazolo[1,5-a]pyridine-3-carboxamide] and `CNC(=O)c1c(-c2ccc(F)cc2)nn2ccc(-c3cc(C(=O)NC4(c5ccccn5)CC4)c(OC)nc3C)c(F)c12` [4-fluoro-2-(4-fluorophenyl)-5-(6-methoxy-2-methyl-5-(1-(pyridin-2-yl)cyclopropylcarbamoyl)pyridin-3-yl)-N-methylpyrazolo[1,5-a]pyridine-3-carboxamide] fall in the same range of EC50: 2 to 250 nM for the first, 2 to 250 nM for the second.

First: CNC(=O)c1c(-c2ccc(F)cc2)nn2ccc(-c3cc(C(=O)NC4(c5nccc(O)n5)CC4)c(OC)cc3C)c(F)c12 [4-fluoro-2-(4-fluorophenyl)-5-(5-(1-(4-hydroxypyrimidin-2-yl)cyclopropylcarbamoyl)-4-methoxy-2-methylphenyl)-N-methylpyrazolo[1,5-a]pyridine-3-carboxamide]
Second: CNC(=O)c1c(-c2ccc(F)cc2)nn2ccc(-c3cc(C(=O)NC4(c5ccccc5)CC4)c(OC)nc3C)c(F)c12 [4-fluoro-2-(4-fluorophenyl)-5-(6-methoxy-2-methyl-5-(1-phenylcyclopropylcarbamoyl)pyridin-3-yl)-N-methylpyrazolo[1,5-a]pyridine-3-carboxamide]
The EC50 of the first is higher: 1000 to 10000 nM for the first, 2 to 250 nM for the second. The second is the more potent here.

`CNC(=O)c1c(-c2ccc(F)cc2)nn2ccc(-c3cc(C(=O)NC4(c5ccccn5)CC4)c(OCC4CCOCC4)nc3C)c(F)c12` [4-fluoro-2-(4-fluorophenyl)-N-methyl-5-(2-methyl-5-(1-(pyridin-2-yl)cyclopropylcarbamoyl)-6-((tetrahydro-2H-pyran-4-yl)methoxy)pyridin-3-yl)pyrazolo[1,5-a]pyridine-3-carboxamide] and `CNC(=O)c1c(-c2ccc(F)cc2)nn2ccc(-c3cc(C(=O)NC4(c5ncccn5)CC4)c(OCC4CCOCC4)nc3C)c(F)c12` [4-fluoro-2-(4-fluorophenyl)-N-methyl-5-(2-methyl-5-(1-(pyrimidin-2-yl)cyclopropylcarbamoyl)-6-((tetrahydro-2H-pyran-4-yl)methoxy)pyridin-3-yl)pyrazolo[1,5-a]pyridine-3-carboxamide] fall in the same range of EC50: 2 to 250 nM for the first, 2 to 250 nM for the second.

`CNC(=O)c1c(-c2ccc(F)cc2)nn2ccc(-c3cc(C(=O)NC4(c5ccccn5)CC4)c(OC(F)F)nc3C)c(F)c12` [5-(6-(difluoromethoxy)-2-methyl-5-(1-(pyridin-2-yl)cyclopropylcarbamoyl)pyridin-3-yl)-4-fluoro-2-(4-fluorophenyl)-N-methylpyrazolo[1,5-a]pyridine-3-carboxamide] and `CNC(=O)c1c(-c2ccc(F)cc2)nn2ccc(-c3cc(C(=O)NC4(c5ccccc5)CC4)c(OC(F)F)nc3C)c(F)c12` [5-(6-(difluoromethoxy)-2-methyl-5-(1-phenylcyclopropylcarbamoyl)pyridin-3-yl)-4-fluoro-2-(4-fluorophenyl)-N-methylpyrazolo[1,5-a]pyridine-3-carboxamide] fall in the same range of EC50: 2 to 250 nM for the first, 2 to 250 nM for the second.

Tested on: HCV
Assay: not given
Details: extended dosing of the combination regimens; development suspended; cited from earlier work

In the case of `CNC(=O)c1c(-c2ccc(F)cc2)oc2cc(N(CCO)S(C)(=O)=O)c(C3CC3)cc12` [HCV-796], the hepatic toxicity is given as “hepatic toxicity observed”.
